Experimental findings from patent US6331565A, “Dicaffeoylquinic acid for treating hepatitis B and the diseases associated with retrovirus, and the new caffeoylquinic acid derivatives” (Institute of Radiation Medicine Academy of Military Medical …, priority 1996, dated 2001) are described below.

Where two headings read alike, the source gives them in different places.

The target in one experiment is T1, HBV DNA polymerase (Hepatitis B virus genotype D subtype ayw, UniProt P03156).
T1 construct: HBV DNA polymerase in viral particles; host or cells: viral particles
T1 sequence (P03156 whole entry): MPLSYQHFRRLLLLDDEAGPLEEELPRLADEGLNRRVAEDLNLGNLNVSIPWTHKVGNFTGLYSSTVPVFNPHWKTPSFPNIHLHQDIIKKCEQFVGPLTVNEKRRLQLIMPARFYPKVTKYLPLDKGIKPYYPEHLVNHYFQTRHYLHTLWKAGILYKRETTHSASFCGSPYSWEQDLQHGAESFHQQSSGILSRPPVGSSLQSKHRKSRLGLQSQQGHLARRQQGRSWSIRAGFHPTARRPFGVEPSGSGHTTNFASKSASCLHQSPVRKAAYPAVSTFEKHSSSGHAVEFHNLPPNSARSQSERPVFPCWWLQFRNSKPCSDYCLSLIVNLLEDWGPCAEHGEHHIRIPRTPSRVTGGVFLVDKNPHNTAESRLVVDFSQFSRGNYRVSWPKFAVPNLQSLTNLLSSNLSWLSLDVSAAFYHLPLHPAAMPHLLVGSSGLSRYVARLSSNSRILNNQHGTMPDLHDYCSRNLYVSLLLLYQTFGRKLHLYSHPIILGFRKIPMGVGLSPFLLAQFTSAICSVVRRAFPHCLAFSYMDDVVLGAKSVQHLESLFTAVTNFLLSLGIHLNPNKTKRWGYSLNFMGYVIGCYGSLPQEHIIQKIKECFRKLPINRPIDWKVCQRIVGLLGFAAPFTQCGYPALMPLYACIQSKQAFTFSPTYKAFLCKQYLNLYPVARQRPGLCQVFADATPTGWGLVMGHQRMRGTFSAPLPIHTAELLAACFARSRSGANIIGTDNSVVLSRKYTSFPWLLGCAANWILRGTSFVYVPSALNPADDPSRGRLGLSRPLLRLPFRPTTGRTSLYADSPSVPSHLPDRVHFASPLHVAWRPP
Description: HBV DNA polymerase assay. It is filed as biochemical. Here is the method: Assay was performed as described by Hantz (Antiviral Res 4(1984) 187-199) with minor modification. The Reaction mixture consisted of HBV DNA polymerase in viral particles in 200 mmol.l^-1 of Tris-HCl pH 7.6, 200 mmol.l^-1 of NH4 Cl. 50 mmol.l^-1 of MgCl2, 10 mmol.l^-1 of 2-mercaptoethanol, 2% Nonidet P-40 and 300 μmol.l^-1 concentrations of deoxynucleotide triphosphates except for [^3 H]dTTP, which was included in the assay at 20 μci.ml^-1. […] The mixtures were incubated at 37° C. for 4 h prior to spotting on Whatman No.3 filter paper which was washed 4 times with cold 5% trichloroacitic acid, then with ethanol. The HBV DNA polymerase activity as measure of the incorperation of the radionucleotide into the viral DNA was counted in a Recbeta (LKB)scintilation counter.

Experiment [1] deals with lymphocyte proliferation induced by Con A. Particulars: 50 mg/kg; for RPI: Normal = 100. As for the experimental part:
mice. Five-wk-old female C57BL/6 mice were used throughout the experiments. All mice were housed in sterile cages in a room supplied with filtrated air. They were given pelleted food and chlorinated water ad libitum.
Infection with LP-BM5 MuLV. Cell-free supernatants of LP-BM5 MULV were prepared by cocultivating G6 SC-1 clones with normal SC-1 cells for 5 days. Mice were inoculated intraperitoneally with 150 μl of stock solution containing 10^3,4×C plaque-forming units and 10^2,3 Mink-cell focks-forming units per […].
Then, the spleens were collected. Cell suspensions were prepared by repeated passage of whole spleen through a pipette, the capsule and debris were allowed to settle, and the supernatants containing cells were collected and washed twice in PBS. […] Incubation continued for 16 hr, then cells were collected on filter that was determined by a scintillation counter.

The test system of a further experiment is DHBV. The experiment is described as follows: anti-DHBV test in ducks (serum DHBV DNA dot blot). It is filed as in vivo, DHBV in Peking (Beijing) ducks. To be noted: for DHBV DNA, grayness of the dot: 50 mg/kg, X ± SD, n = 7. As for the experimental part: One-day-old ducklings were infected with a 200 μl intravenous injection of DHBV-positive serum containing 10^11 viral genome equivalents per milliliter. Treatment began when ducklings were 7 days old. A total 89 seven-day-old viraemic ducks were distributed at random into five groups. […] Post-treatment follow-up was carried over a period of 5 days. Blood samples were obtained repectively from the leg vein of all ducks and stored at -70° C. after serum separation, prior to treatment, weekly during the treatment, and for 5 days after cessation of treatment. They were screened for presence of DHBV DNA by dot blot hybridization.
DHBV DNA in serum was analyzed by molecular hybridization using full length DHBV DNA clones in PB325. The DHBV DNA insert was purified by agarose gel electrophoresis after digestion with EcoRI. The DHBV DNA was radiolabeled with α^32 P-dCTP random oligopriming with Klenow fragment. Dot blot hybridization was carried out by the method of Scotto et al. Briefly, an aliquot (200 μl) serum was spotted onto a nylon membrane (Hybond-N, Amersham International, England) in dot blot manifold and denatured with 0.5 M NaOH--NaCl at room temperature for 30 min. Each spotted sample was neutralized in 1M Tris.HCl-1.5M NaCl (pH8.0). The DNA on the membrane was fixed by heating at 80° C. for 2 h, and prehybridization at 37° C. overnight in 50% formamide, 5×Denhardt's, 6×SSC,[…], 0.5% SDS and 10 mg/ml of calf thymus DNA. Hybridization was initiated by adding DHBV [^32 P] DNA probes at 10^6 cpm/ml at the same prehybridization conditions overnight. The membrane was washed in 3×SSC-0.1% SDS at room temperature, 42° C. and 65° C. for 10 min respectively. After hybridization the membranes were air-dried and exposed for periods of up to 14 days at -70° C. with Kodak film with an enhancer screen. The amount of viral DNA were assayed by both densitometry and image analysis of autoradiographic membranes.

In a further experiment the test system is HBsAg. Description: microbe, parasite or virus in culture. It is filed as cell-based, HBV. Particulars: ACV, concentration not given. Here is the method: (§1) The cultures were passenged by trypsinization every 4 days.
(§2) HBsAg and HBeAg in the culture medium were determined according to the protocol respectively. The culture medium (200 μl) was absorbed on beads containing antibody to HBsAg/HBeAg in the presence of the conjugate. After overnight incubation, the beads were washed 6 times with […] PBS containing 0.05% Tween-80 and incubated with 200 μl of [^125 I] anti-HBs(Hbe) overnight. The beads were washed 6 times as above. The amounts HBsAg/HBeAg as measure of cpm of [^125 I] labeled immunocomplex was counted on γ-counter.

The test system of the next experiment is HBeAg. The experiment is described as follows: microbe, parasite or virus in culture. It is filed as cell-based, HBV. To be noted: ACV, concentration not given. Here is the method: as §1, §2

Usually IC50 stands for the concentration that gives 50% inhibition. Lower therefore signals greater potency. With `O=C(O)P(=O)(O)O` [PFA, reference compound], on HBV DNA polymerase, inhibition was half-maximal at 184 µM (IC50) and the “inhibitory effect on HBV DNAp” value is “dose-dependent inhibitory effect”. At HBV DNA polymerase (1 μg/ml), the cpm was determined as 10267 ± 77 cpm. At HBV DNA polymerase (10 μg/ml), this compound registered a cpm of 5495 ± 218 cpm. The same compound returned a cpm at HBV DNA polymerase (100 μg/ml) of 3065 ± 67 cpm. Further, the cpm at HBV DNA polymerase (1000 μg/ml) was 2377 ± 329 cpm. Besides, at HBV DNA polymerase (read-out: Inhibitory rate (%)), the inhibition at 1 µg/mL was -5.2 ± 15.3%, the inhibition at 10 µg/mL came to 44.4 ± 2.3%, the inhibition at 100 µg/mL worked out at 69.7 ± 0.7% and the inhibition at 1000 µg/mL amounted to 76.8 ± 3.4%.

In experiment [1] (Con A (5 μg/ml)), `Cc1cn([C@H]2C[C@H](N=[N+]=[N-])[C@@H](CO)O2)c(=O)[nH]c1=O` [AZT] had a cpm of 53287 ± 2043 cpm and an RPI of 95.10. In experiment [1] (Con A ([…])), this compound showed a cpm of 33212 ± 2609 cpm and an RPI of 93.21.

Take `Nc1nc2c(ncn2COCCO)c(=O)[nH]1` [ACV, acyclovir, reference compound]: the “DHBV DNA, grayness of the dot” value in the experiment with DHBV (P5 (day 5 after withdrawal)) turned out to be 9.0 ± 8.6 K Grayness; in the experiment on DHBV (day 0 (before treatment), oral), 6.3 ± 4.2 K Grayness; in the experiment with DHBV (day 7, oral), 0.1 ± 0.3 K Grayness; in the experiment with DHBV (day 14, oral), 0.0 ± 0 K Grayness. For the same compound, in the experiment on DHBV (day 5 after cessation of treatment), the “viraemia returned to a level higher than that of pretreatment by” value is given as 43%. The “DHBV DNA from the sera” value in the experiment with DHBV (during the 14 days of therapy, all 7 treated birds) was “substantial decrease of DHBV DNA from the sera”. Moreover, the “HBsAg Inhibit rate (%)” value worked out at 48.20% in the experiment on HBsAg (day 4), 29.54 ± 5.15% in the experiment on HBsAg (day 8) and 23.22% with HBsAg (day 12). For the same compound, the HBsAg cpm with HBsAg (day 4) stood at 710.1 ± 65.7 cpm; with HBsAg (day 8) it was 870.1 ± 51.1 cpm; in the experiment with HBsAg (day 12), 622.5 ± 58.8 cpm. In addition, the “HBeAg Inhibit rate (%)” value is given as 26.22 ± 1.17% in the experiment with HBeAg (day 4), 26.75 ± 1.21% with HBeAg (day 8) and 3.71 ± 1.36% in the experiment with HBeAg (day 12). Moreover, the results for the HBeAg cpm in the experiment on HBeAg (day 4), in the experiment with HBeAg (day 8) and with HBeAg (day 12) were 3910.9 ± 57.6 cpm, 6101.9 ± 96.17 cpm and 8194.1 ± 111.5 cpm, respectively.
